Assay results: patent publication US20230416329A1, “A PEPTIDE WITH DISULFIDE BONDS AND INHIBITORY ACTIVITY AGAINST SERINE PROTEASES, DERIVED HYBRID PEPTIDES THEREOF, AND USES THEREOF” (INSTITUTE OF MATERIA MEDICA , CHINESE ACADEMY OF MEDICAL …, priority 2020, published 2023)
pIC50, pKi: −log10 of the molar value. Bridge positions count the residues as written; N and C are the ends. Peptide text beside a SMILES is read from it.

Target: T1, bovine trypsin (Bos taurus, UniProt P00760)
T1 sequence (P00760 24-246): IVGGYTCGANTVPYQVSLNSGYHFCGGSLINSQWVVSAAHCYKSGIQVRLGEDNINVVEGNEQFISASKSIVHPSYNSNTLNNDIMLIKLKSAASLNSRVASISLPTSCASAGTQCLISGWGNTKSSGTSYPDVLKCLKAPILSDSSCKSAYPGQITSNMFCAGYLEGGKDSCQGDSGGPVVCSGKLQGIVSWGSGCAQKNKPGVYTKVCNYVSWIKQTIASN
Test: Trypsin inhibitory activity of peptides (BApNA hydrolysis, OD405; IC50, Ki, residual activity)
Format: biochemical
Conditions: for pKi: read-out: inhibition constant (Ki) towards trypsin; for pIC50: trypsin 50 nM, BApNA 1.22 mM, read-out: IC50
Description: The substrates N-succinyl-Ala-Ala-Pro-Phe-p-nitroaniline (AAPFpNA), Nα—Benzoyl-L-arginine-4-nitroaniline hydrochloride (BApNA) and N-succinyl-[…] (AAApNA) are used in competitive binding reaction to determine the inhibitory activities against α-chymotrypsin, bovine trypsin, and porcine pancreatic elastase, respectively. Experiments for α-chymotrypsin and bovine trypsin inhibition were measured in 20 mM CaCl2, 50 mM Tris-HCl buffer (pH 7.8), and that for porcine elastase inhibition was measured in 50 mM Tris-HCl buffer (pH 8.0). The concentration of the peptide was measured using optical density (OD) at 280 nm. The Michaelis constant (Km) of the enzyme hydrolysis substrate is calculated from the initial rate of substrate hydrolysis at 405 nm. The absorbance value of the substrate was measured at 405 nm after complete hydrolysis. All data were processed using nonlinear regression.
• (1) Added 200 μL of reaction buffer (20 mM CaCl2 and 50 mM Tris-HCl, pH 7.8) into the 96-well plate, and preheated at 37° C. for 15 min. Then added 5 μL of different concentrations of substrates (p-Nitroanilide, pNA, 0.5% in DMSO), and mixed by centrifugation at 500 rpm for 1 min. […] The experiment was performed in triplicate. The standard curve was obtained by plotting the OD405 nm value with pNA concentration. • (2) Added 190 μL of reaction buffer (20 mM CaCl2 and 50 mM Tris-HCl, pH 7.8) and 10 μL of 1 μM trypsin into the 96-well plate, and preheated at 37° C. for 15 min. Then added 5 μL of different concentrations of substrates (BApNA, 0.5% in DMSO) and mixed by centrifugation at 500 rpm for 1 min. […] The experiment was performed in triplicate. The corresponding curve was obtained by plotting the OD405 nm value with time. Divided the slope of the curve by the slope of the standard curve and the enzyme concentration to obtain the initial velocity V0 (mM/(min*mM protein). Plotted the initial velocity V0 with the concentration of substrate BApNA using Prism software, and the Michaelis constant Km value of trypsin hydrolyzing BApNA was obtained.
• (1) Added a total 190 μL of reaction buffer (20 mM CaCl2 and 50 mM Tris-HCl, pH 7.8) along with different concentrations of anti-trypsin peptides (BTs) into the pre-cooled 96-well plate, followed by preheating at 37° C., and spined down at 500 rpm for 5 min. Next added 10 μL of 1 μM trypsin, incubated at 37° C., and then spined down at 500 rpm for 10 min. Finally, added 5 μL of 50 mM BApNA, and mixed by centrifugation at 500 rpm for 1 min. The plate was incubated at 37° C. for 260 min, and the absorbance value at 405 nm was measured. The experiment was performed in triplicate. The blank control only contained the reaction buffer and the substrate as the minimum absorption value (Min OD405 nm). The negative control only contained the reaction buffer, the enzyme and the substrate as the maximum absorption value (Max OD405 nm). • (2) In the reaction system of 205 μL, the final concentrations of trypsin and BApNA were 50 nM and 1.22 mM, respectively. • (3) Data statistics
Residual activity of the enzyme (%)=(1−(Max OD405 nm−Sample OD405 nm)/(Max OD405 nm−Min OD405 nm))*100
Plotted the residual activity of the enzyme with […] to obtain the half inhibitory concentration (IC50) of BTs scaffold against trypsin. Then, substituted it into the formula Ki=IC50/(1+S/Km) (S, IC50 and Km were substrate concentration, half inhibitory concentration and Michaelis constant, respectively) to obtain the inhibition constant Ki of BTs scaffold against trypsin.

Row | Structure (SMILES) | Residual trypsin activity (peptide 0.488 μM) | Residual trypsin activity (peptide 0.98 μM) | Residual trypsin activity (peptide 1.95 μM) | Residual trypsin activity (peptide 4.88 μM) | pKi | pIC50 | inhibitory activity against trypsin (in words) | Residual trypsin activity (peptide 0.00488 μM) | Residual trypsin activity (peptide 0.0488 μM) | also measured
1 | CC[C@H](C)[C@@H]1NC(=O)[C@@H]2CCCN2C(=O)[C@@H]2CCCN2C(=O)[C@H]([C@@H](C)CC)NC(=O)[C@H](CO)NC(=O)[C@H](CCCCN)NC(=O)[C@H]([C@@H](C)O)NC(=O)CNC(=O)[C@H](CCCCN)NC(=O)[C@H](C)NC(=O)CNC(=O)[C@@H](N)CSSC[C@@H](C(=O)N[C@@H](Cc2ccccc2)C(=O)N2CCC[C@H]2C(=O)N[C@@H](CC(=O)O)C(=O)O)NC1=O [BT2] (H-CGAKGTKSIPPICFPD-OH; disulfide 1-13; N-terminus and C-terminus assumed) | 94.6 ± 1.7% | 83.6 ± 5.2% | 72.9 ± 6.1% | 12.9 ± 1.3% | 6.19 |  |  |  |  | Residual trypsin activity (peptide 2.93 μM): 51.2 ± 9.0%; Residual trypsin activity (peptide 9.76 μM): 4.2 ± 0.4%; Residual trypsin activity (peptide 19.51 μM): 3.7 ± 0.5%; Residual trypsin activity (peptide 39.02 μM): 0.5 ± 0.1%
2 | CC[C@H](C)[C@@H]1NC(=O)[C@@H]2CCCN2C(=O)[C@@H]2CCCN2C(=O)[C@H]([C@@H](C)CC)NC(=O)[C@H](CO)NC(=O)[C@H](CCCCN)NC(=O)[C@H]([C@@H](C)O)NC(=O)[C@H](C)NC(=O)[C@H](CCCCN)NC(=O)[C@H](C)NC(=O)CNC(=O)[C@@H](N)CSSC[C@@H](C(=O)N[C@@H](Cc2ccccc2)C(=O)N2CCC[C@H]2C(=O)N[C@@H](CC(=O)O)C(=O)O)NC1=O [BT3] (H-CGAKATKSIPPICFPD-OH; disulfide 1-13; N-terminus and C-terminus assumed) | 67.2 ± 4.8% | 23.3 ± 5.3% |  | 1.8 ± 0.9% | 6.85 |  |  |  |  | Residual trypsin activity (peptide 0.098 μM): 95.7 ± 3.6%; Residual trypsin activity (peptide 0.1463 μM): 86.8 ± 2.5%; Residual trypsin activity (peptide 0.293 μM): 85.6 ± 1.3%; Residual trypsin activity (peptide 9.76 μM): 0.9 ± 0.4%; Residual trypsin activity (peptide 19.51 μM): 0.1 ± 0.0%
3 | CC[C@H](C)[C@@H]1NC(=O)[C@@H]2CCCN2C(=O)[C@@H]2CCCN2C(=O)[C@H]([C@@H](C)CC)NC(=O)[C@H](CO)NC(=O)[C@H](CCCCN)NC(=O)[C@H]([C@@H](C)O)NC(=O)CNC(=O)[C@H](CCCCN)NC(=O)[C@H](C)NC(=O)CNC(=O)[C@@H](N)CSSC[C@@H](C(=O)N[C@@H](CC(=O)O)C(=O)O)NC(=O)[C@H](Cc2ccccc2)NC(=O)CNC1=O [BT4] (H-CGAKGTKSIPPIGFCD-OH; disulfide 1-15 (inferred); N-terminus and C-terminus assumed) |  |  |  |  |  | < 4.30 |  |  |  | 

Now from value to molecule, other results behind:

Row | Residual trypsin activity (peptide 0.488 μM) | Residual trypsin activity (peptide 0.98 μM) | Residual trypsin activity (peptide 1.95 μM) | Residual trypsin activity (peptide 4.88 μM) | pKi | pIC50 | inhibitory activity against trypsin (in words) | Residual trypsin activity (peptide 0.00488 μM) | Residual trypsin activity (peptide 0.0488 μM) | Structure (SMILES) | also measured
4 | 3.0 ± 0.2% | 0.7 ± 0.1% |  |  | 7.52 |  | enhanced trypsin inhibitory activity | 103.7 ± 5.2% | 83.1 ± 0.4% | CC[C@H](C)[C@@H]1NC(=O)[C@@H]2CCCN2C(=O)[C@@H]2CCCN2C(=O)[C@H]([C@@H](C)CC)NC(=O)[C@H](CO)NC(=O)[C@H](CCCCN)NC(=O)[C@H]([C@@H](C)O)NC(=O)[C@H](C)NC(=O)[C@H](CCCNC(=N)N)NC(=O)CNC(=O)[C@@H](N)CSSC[C@@H](C(=O)N[C@@H](Cc2ccccc2)C(=O)N2CCC[C@H]2C(=O)N[C@@H](CC(=O)O)C(=O)O)NC1=O [BT5] (H-CGRATKSIPPICFPD-OH; disulfide 1-12; N-terminus and C-terminus assumed) | Residual trypsin activity (peptide 0.00098 μM): 104.0 ± 5.2%; Residual trypsin activity (peptide 0.002439 μM): 108.1 ± 2.6%; Residual trypsin activity (peptide 0.098 μM): 75.2 ± 5.9%
5 | 25.9 ± 2.9% | 8.5 ± 0.9% | 2.8 ± 0.0% | 1.2 ± 0.2% | 7.22 | 6.54 | enhanced trypsin inhibitory activity | 111.9 ± 7.2% |  | CC[C@H](C)[C@@H]1NC(=O)[C@@H]2CCCN2C(=O)[C@@H]2CCCN2C(=O)[C@H]([C@@H](C)CC)NC(=O)[C@H](CO)NC(=O)[C@H](CCCCN)NC(=O)[C@H]([C@@H](C)O)NC(=O)[C@H](C)NC(=O)[C@H](CO)NC(=O)CNC(=O)[C@@H](N)CSSC[C@@H](C(=O)N[C@@H](Cc2ccccc2)C(=O)N2CCC[C@H]2C(=O)N[C@@H](CC(=O)O)C(=O)O)NC1=O [BT6] (H-CGSATKSIPPICFPD-OH; disulfide 1-12; N-terminus and C-terminus assumed) | Residual trypsin activity (peptide 0.000488 μM): 99.3 ± 7.2%; Residual trypsin activity (peptide 0.002439 μM): 108.6 ± 7.1%; Residual trypsin activity (peptide 0.195 μM): 77.5 ± 7.6%
6 |  | 5.7 ± 1.7% | 1.5 ± 0.3% |  | 7.30 |  | enhanced trypsin inhibitory activity |  | 95.2 ± 1.1% | CC[C@H](C)[C@@H]1NC(=O)[C@@H]2CCCN2C(=O)[C@@H]2CCCN2C(=O)[C@H]([C@@H](C)CC)NC(=O)[C@H](CO)NC(=O)[C@H](CCCCN)NC(=O)[C@H]([C@@H](C)O)NC(=O)[C@H](C)NC(=O)[C@H](C)NC(=O)CNC(=O)[C@@H](N)CSSC[C@@H](C(=O)N[C@@H](Cc2ccccc2)C(=O)N2CCC[C@H]2C(=O)N[C@@H](CC(=O)O)C(=O)O)NC1=O [BT7] (H-CGAATKSIPPICFPD-OH; disulfide 1-12; N-terminus and C-terminus assumed) | Residual trypsin activity (peptide 0.000098 μM): 103.5 ± 1.6%; Residual trypsin activity (peptide 0.0002439 μM): 107.8 ± 3.2%; Residual trypsin activity (peptide 0.000488 μM): 97.9 ± 4.3%; Residual trypsin activity (peptide 0.2439 μM): 48.5 ± 5.3%; Residual trypsin activity (peptide 1.463 μM): 2.9 ± 1.1%
7 |  |  |  |  |  | < 4.30 |  |  |  | CC[C@H](C)[C@@H]1NC(=O)[C@@H]2CCCN2C(=O)[C@@H]2CCCN2C(=O)[C@H]([C@@H](C)CC)NC(=O)[C@H](CO)NC(=O)[C@H](CCCCN)NC(=O)[C@H]([C@@H](C)O)NC(=O)[C@H](C)NC(=O)[C@H](CCCNC(=N)N)NC(=O)CNC(=O)[C@@H](N)CSSC[C@@H](C(=O)O)NC1=O [BT8] (H-CGRATKSIPPIC-OH; disulfide 1-12 (inferred); N-terminus and C-terminus assumed) | 
8 | −0.2 ± 0.1% | −0.4 ± 0.0% |  |  | 8.00 | 7.15 | excellent trypsin inhibitory activities | 99.0 ± 0.5% | 68.1 ± 1.4% | CC[C@H](C)[C@@H]1NC(=O)[C@@H]2CCCN2C(=O)[C@@H]2CCCN2C(=O)[C@H]([C@@H](C)CC)NC(=O)[C@H](CO)NC(=O)[C@H](CCCCN)NC(=O)[C@H]([C@@H](C)O)NC(=O)[C@H](C)NC(=O)[C@H](CCCNC(=N)N)NC(=O)CNC(=O)[C@@H](N)CSSC[C@@H](C(=O)N[C@@H](Cc2ccccc2)C(=O)O)NC1=O [BT9] (H-CGRATKSIPPICF-OH; disulfide 1-12; C-terminus assumed) | Residual trypsin activity (peptide 0.00098 μM): 100.4 ± 0.6%; Residual trypsin activity (peptide 0.0098 μM): 94.3 ± 1.3%; Residual trypsin activity (peptide 0.02439 μM): 84.2 ± 1.9%; Residual trypsin activity (peptide 0.2439 μM): 0.3 ± 0.0%
